The results in this text go back to patent US8710098B2, “Group of amino substituted benzoyl derivatives and their preparation and their use” (priority 2008, dated 2014).

Values after ≈ are worked out from the molar mass of the structure shown. Where only a bound is given, the exact number is not on record here.

The target in test [1] is T1, hA3G degradation mediated by HIV-1 Vif (UniProt P69723+Q9HC16).
T1 construct: expressed in transfected cells
The test is described as follows: Screening experiment for up-regulation activity to hA3G (YFP-fused hA3G co-expressed with HIV-1 Vif, fluorescence). The class given is cell-based, human. As to conditions: YFP fluorescence of cells co-expressing Vif and hA3G-YFP; excitation 485 nm, detection 520 nm; averages of duplicates. An excerpt:
Based on the advances making research on the hA3G degradation mediated by HIV-1 Vif, this invention establishes a high throughput anti-HIV-1 drug screening model using hA3G degradation mediated by HIV-1 Vif as target, to screen small molecule active compounds capable of inhibiting this degradation process. The function principle of this model is that HIV-1 Vif protein and hA3G fused yellow fluorescent protein (YFP) co-expressed in the cells, then the intracellular fluorescence intensity (at […]) decreases owing to the degradation of hA3G caused by Vif and subsequent degradation of YEP fused on hA3G. By means of measuring the change of fluorescent intensity, the influence of the screened compounds on the degradation of hA3G caused by Vif can quantitatively be analyzed. Simultaneously, to differentiate the non-specific inhibitory effect of diverse ubiquitin degradation route in the samples, this invention establishes a recheck model based on the detection of P53 degradation caused by the product of adenovirus early gene, to assure that the positive samples screened out by the proposed model can specifically block the degradation of hA3G caused by Vif.
Screening Experiment for Up-Regulation Activity to hA3G
The cells are picked up and cultured a culture bottle. When the cells grow full of the culture bottle, old culture medium is discarded and the cells are digested with digestion medium. When the cells turn round, the digestion medium is discarded and the culture medium is added in at once, the bottom of the bottle is gently blown with a pipette to make the cells disengage the bottle bottom and disperse into single cell suspension. After counting the cells using blood cell counting chamber, the cell suspension is inoculated into a culture dish for transfection. The medium containing the plasmid to be transfected and the transfection reagents is gently mixed up and incubated at room temperature. The medium is then added into the supernatant of the cell culture and cultured for a certain period of time. The old culture medium is then sucked out, the cells are digested with digestive medium, the digestive medium is subsequently discarded and culture medium is immediately added. The medium is gently blown to disperse the cells into single cell suspension. After counting the cells using blood cell counting chamber, the cells are ready for inoculation.
Samples of compounds[…]Pure tested compounds are dissolved in DMSO, the solution is diluted with equal proportional distilled water. The diluent is used to test the cell systems.
Sample solution of different concentration is added into the supernatant of a cell culture. After the cells are continuously cultured, old culture medium is sucked out and the cells are blown with PBS buffer until the cells completely disengage from the culture bottle.
The fluorescence intensity values of the cell suspension with test compound samples, positive control samples and negative control samples are respectively measured with fluorometer, the excitation wavelength is 485 nm and the detection wavelength 520 nm. Averages of duplicated measurements are taken as the results.
The measured fluorescence intensity values of the negative control samples (blink sample) subtracted from those of test compound samples, the results are taken as YFP fluorescence of different groups. Relative fluorescence intensity=fluorescence intensity of a test sample group/fluorescence intensity of the positive control group×100% Inhibition rate of degradation=(test sample group−negative control group)/(positive control group−negative control group)×100%

Test [2] concerns HIV-1. The following applies: HIV-1 P24 antigen in supernatant 4 days (96 h) after addition of compounds.
Description: (§1) The inhibitory activities of the compounds proposed in this invention to HIV-1 were measured using HIV-1 P24 antigen kit.
(§2) DMSO solutions of samples of test compounds listed in Table 2 diluted to 8 different concentrations and the solution of the positive control AZT (azidothymidine, 0.15 ng/ml) are respectively added into 96 well plates, duplications are set for each of the dilutions, and negative control samples are also made. Aliquots of 100 μl 2×10^5 cell/ml suspension are inoculated onto the 96 well cell culture plates and cultured in an incubator under a condition of 37° C., 5% CO2 and saturated humidity. The pathologic changes of the cells are observed every day. The HIV-1 P24 antigen contents in supernatant cells are measured in 4 days (96 h) after addition of the test compounds according to the operation procedure provided by the HIV-1 P24 antigen kit.
Test [3] has as its system HIV-1. The test is described as follows: microbe, parasite or virus in culture. As to conditions: Human immunodeficiency virus 1, 96 h, read-out: inhibitory activity to HIV-1, IC50.
Description: as §1, §2

T1 sequence (P69723 whole entry): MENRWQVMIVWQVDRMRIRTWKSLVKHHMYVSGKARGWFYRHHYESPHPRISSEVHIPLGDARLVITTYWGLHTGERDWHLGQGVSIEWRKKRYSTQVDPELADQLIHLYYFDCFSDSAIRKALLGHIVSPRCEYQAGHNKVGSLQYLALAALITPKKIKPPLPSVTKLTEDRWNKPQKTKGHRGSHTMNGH
T1 sequence (Q9HC16 whole entry): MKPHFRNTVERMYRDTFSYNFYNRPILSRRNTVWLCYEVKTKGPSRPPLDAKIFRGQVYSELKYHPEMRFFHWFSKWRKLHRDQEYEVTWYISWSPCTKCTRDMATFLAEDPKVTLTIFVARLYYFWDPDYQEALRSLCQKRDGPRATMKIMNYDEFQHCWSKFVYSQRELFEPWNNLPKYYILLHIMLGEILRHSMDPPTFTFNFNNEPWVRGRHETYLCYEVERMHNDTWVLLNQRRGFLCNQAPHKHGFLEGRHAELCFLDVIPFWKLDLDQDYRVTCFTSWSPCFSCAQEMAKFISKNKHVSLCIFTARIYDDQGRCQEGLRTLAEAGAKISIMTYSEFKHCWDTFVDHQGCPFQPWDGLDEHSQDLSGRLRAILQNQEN

As for “3-amino-4-methoxybenzanilide [Compound 2621]”, in test [1], the “hA3G up-regulation activity (%)” value was 36.2%. Also, the “inhibitory activity to HIV-1, IC50” value in the test with HIV-1 [2] was under 0.0137 µg/mL.
For `CCC(=O)Nc1cc(C(=O)Nc2cc(OC)c(OC)c(OC)c2)ccc1OC` [Compound 261, N-(3′,4′,5′-trimethoxyphenyl) 3-propionamido-4-methoxybenzamide], in the test with HIV-1 [3], the IC50 came to 0.0227 µg/mL (≈ 0.0584 µM). In addition, the “hA3G up-regulation activity (%)” value in test [1] is 43.9%.
Turning to `COc1ccc(C(=O)Nc2cc(OC)c(OC)c(OC)c2)cc1N` [Compound 262, N-(3′,4′,5′-trimethoxyphenyl) 3-amino-4-methoxybenzamide], the IC50 in the test with HIV-1 [3] stood at 0.0244 µg/mL (≈ 0.0734 µM). Moreover, the “hA3G up-regulation activity (%)” value in test [1] was 36.2%.
On to `COc1ccc(C(=O)Nc2cc(OC)c(OC)c(OC)c2)cc1NC(=O)C(F)(F)F` [Compound 263, N-(3′,4′,5′-trimethoxyphenyl)-3-trifluoroacetamido-4-methoxybenzamide], for which the IC50 in the test with HIV-1 [3] was under 0.0137 µg/mL. In addition, in test [1], the “hA3G up-regulation activity (%)” value is recorded as 24.4%.
The corresponding values for `CCC(=O)Nc1cc(C(=O)Oc2cc(OC)c(OC)c(OC)c2)ccc1OC` [Compound 351, 3′,4′,5′-trimethoxyphenyl 3-propionamido-4-methoxybenzoate] are 0.0299 µg/mL (≈ 0.0768 µM) and 36.7%.
For the compound `COc1ccc(C(=O)Oc2cc(OC)c(OC)c(OC)c2)cc1N` [Compound 352, 3′,4′,5′-trimethoxyphenyl 3-amino-4-methoxybenzoate], in test [1], the “hA3G up-regulation activity (%)” value was found to be 37.0%. In addition, the “inhibitory activity to HIV-1, IC50” value in the test with HIV-1 [2] came out at 0.0554 µg/mL.
With `CCC(=O)Nc1cc(C(=O)Nc2ccc(OC)cc2)ccc1OC` [Compound 2611, N-(4′-methoxyphenyl)-3-propionamido-4-methoxybenzamide], the IC50 in the test on HIV-1 [3] amounted to 0.017 µg/mL (≈ 0.0518 µM). For the same compound, the “hA3G up-regulation activity (%)” value in test [1] worked out at 28.9%.
For the compound `CCC(=O)Nc1cc(C(=O)Nc2ccc(Cl)cc2)ccc1OC` [Compound 2613, N-(4′-chlorophenyl)-3-propionamido-4-methoxybenzamide], in the test on HIV-1 [3], the IC50 amounted to 0.0138 µg/mL (≈ 0.0415 µM). The “hA3G up-regulation activity (%)” value in test [1] stood at 27.8%.
